Test: Cavity diagnosis testing under dental curing lamp with ImageJ image analysis
Parameters: species or system human
From the text: Extracted teeth are obtained from School of Dentistry, University of Michigan (human subjects exempt) and stored in 1% sodium azide before use. The teeth are painted with an acid resistant varnish leaving a 1 mm 2 enamel window on the buccal surface of the crowns of the teeth. […] At the completion of the demineralization, the teeth are rinsed with distilled H2O before subjected to caries activity test. Residual varnish is removed by washing in acetone.
Teeth are exposed to 20 microliters of sample for three minutes prior to rinsing in DI water. Rinsing is done initially for 10 seconds, and teeth are examined and photographed while illuminated with a standard dental curing lamp. Rinsing is continued for an additional 10 seconds, followed by imaging, and this is repeated for up to 5 minutes to determine “residence times” for each sample to optimize the exposure procedure.
After a 3 minute exposure followed by 20 seconds of rinsing, imaging is performed under the dental curing lamp.
Digital images are taken with a Nikon ABC camera and analyzed using ImageJ image analysis software. In particular, the “mean gray value” measurement tool is used to compare grayscale brightness between the carious lesion and the background tooth as a measurement of contrast. […]

FITC-dextran
retention in carious lesions on rinsing in DI water (controls: rinse times of more than 20 seconds, cationic StNP: up to five minutes): fully washed away | illumination of carious lesions (statistical analysis of percent intensity difference) (versus untreated teeth / background tooth): did not illuminate carious lesions

Reference: patent US12023388B2, “Detection and treatment of caries and microcavities with nanoparticles” (THE REGENTS OF THE UNIVERSITY OF MICHIGAN, priority 2015, dated 2024)
